Measured values published in US4910225A, “Locally administrable therapeutic composition for inflammatory disease” (Senju Pharmaceutical Co., Ltd., priority 1988, dated 1990).

Assays:
[1] = test system: carrageenin edema in rats; test: Carrageenin edema of the conjunctiva in rats; assay type: in vivo; settings: 4 hours after carrageenin; for Weight of Edema: mean ± SE for 10 eyes
Protocol: 1. Sodium 3-(4-bromobenzoyl)-2-aminophenyl-acetate (hereinafter referred to as Compound [I])
2. Sodium 3-(4-chlorobenzoyl)-2-aminophenyl-acetate (hereinafter referred to as Compound [II])
3. Sodium 3-benzoyl-2-aminophenylacetate (hereinafter referred to as Compound [III])
Using female Wister rates weighing 100 g in groups of 5 animals or 10 eyes, 0.05 ml of 1% carrageenin (dissolved in physiological saline at 50° C.) as a phlogogen was injected beneath the conjuctiva of both eyes to induce edema. Physiological saline, as a control, and test drugs were respectively instilled into both eyes 40 and 20 minutes before and immediately after the injection of carrageenin, in the amount of 2.5 μl per dose. Four hours after the phlogogen treatment, each animal was sacrificed by cervical dislocation and in accordance with the method of Maistrello et al.^(2), the scalp was peeled off toward the eyelid and the edematous portion together with the skin was removed along the lid margin and weighed.
^(2) Maistrello et al.: Quantitative Effect of Topically Applied Anti-inflammatory Agents on External Ocular Inflammation in Rats: Journal of Pharmaceutical Science, volume 62, pp. 1455-60(1973).

[2] = test system: atropine-resistant miosis; test: Atropine-resistant miosis after paracentesis; assay type: in vivo, albino rabbits
Protocol: (§1) The solutions of the following formulas were used.
(§2) Totally 28 male albino rabbits (4 rabbits×7 groups) with a body weight of about 2 kg werr used. They had been confirmed, before the experiment, to have mydriatic response to 1% atropine for at least 4 hours.
(§3) 50 μl each of 1% atropine solution was instilled into both eyes of the animals one hour before the 1st paracenthesis, in which approx. 0.2 ml/eye of aqueous humor (primary aqueous humor) was collected. Topical application of 50 μl each of the test drug solutions was conducted 30 min before the paracenthesis. Pupil diameter of each eye was measured with a slide caliper immediately before and 10 min after the paracenthesis. The 2nd paracenthesis was conducted 90 min after the 1st one, in which approx. 0.2 ml/eye of aqueous humor (secondary aqueous humor) was collected.

[3] = test system: protein increase after paracentesis; test: Protein increase in aqueous humor after paracentesis; assay type: in vivo, albino rabbits; settings: content 0.5%
Protocol: as §1, §2, §3

[4] = test system: cyclooxgenase; settings: cited from earlier work

SMILES | Degree of inhibition (carrageenin edema) ([1]; 1.0%) [%] | Weight of Edema ([1]; 1.0%) [mg] | Degree of inhibition (carrageenin edema) ([1]; 5.0%) [%] | Weight of Edema ([1]; 5.0%) [mg] | Degree of inhibition (carrageenin edema) ([1]; 0.5%) [%] | Weight of Edema ([1]; 0.5%) [mg] | Inhibitory activity on miosis after paracentesis ([2]; Compound [I] 0.0001-0.1%, indomethacin as high as 0.5%) | Inhibition (miosis) ([2]; content 0.5%) [%] | Miosis ([2]; content 0.5%, 10 min after paracentesis) [%] | Inhibition (protein increase) [3] [%] | Cyclooxygenase inhibitory activity [4]
Nc1c(CC(=O)[O-])cccc1C(=O)c1ccccc1.[Na+] [Compound [III], Sodium 3-benzoyl-2-aminophenylacetate] | 41.4 | 30.98 ± 3.194 | 37.9 | 32.80 ± 2.409 |  |  |  |  |  |  | 
Nc1c(CC(=O)[O-])cccc1C(=O)c1ccc(Cl)cc1.[Na+] [Compound [II], Sodium 3-(4-chlorobenzoyl)-2-aminophenyl-acetate] | 34.4 | 39.02 ± 3.057 |  |  | 36.9 | 37.52 ± 2.423 |  |  |  |  | 
COc1ccc2c(c1)c(CC(=O)O)c(C)n2C(=O)c1ccc(Cl)cc1 [Indomethacin, reference compound] |  |  |  |  |  |  | little effect was observed | 6.0 ± 21.4 | 16.4 ± 3.86 | 69.7 | strong cyclooxgenase inhibitory activity
